These results are taken from patent US9718806B2, “Quinazoline inhibitors of activating mutant forms of epidermal growth factor receptor” (AstraZeneca AB, priority 2013, dated 2017).

Structures can show the parent of a compound that is named as a salt.

For one series, the system named is endogenous p-EGFR. As to the kind of experiment: Assay 1: cellular phosphorylation assay, overall statement. To be noted: Assay 1, statement on the table. In kind it is cell-based, human. The source says:
Assay 1: Cellular Phosphorylation Assay
The human lung cell line NCI-H3255 (L858R) was obtained from the American Type Culture Collection. The NCI-H3255 cells were maintained in BEBM media (Lonza; CC-3171), containing 10% fetal bovine serum (FBS) (Gibco; 10099-141), supplemented with BEGM kit (Lonza; CC-4175). The human lung cell line PC-9 (Exon 19 deletion EGFR) was obtained from the American Type Culture Collection. PC-9 cells were maintained in RPMI 1640 (Gibco; 22400-089), containing 10% fetal bovine serum. The human lung cell line NCI-H838 (EGFR wild type) was obtained from the American Type Culture Collection. NCI-H838 cells were maintained in RPMI 1640 (Gibco; 22400-089), containing 10% fetal bovine serum.
All cells were grown in a humidified incubator at 37° C. with 5% CO2. Assays to measure cellular phosphorylation of endogenous p-EGFR in cell lysates were carried out according to the protocol described in the PathScan® Phospho-EGF Receptor (Tyr1068) Sandwich ELISA Kit (Cell Signalling kit catalogue number #7240).
100 μL of cells were seeded (32000 cells/well) in RPMI 1640+1% fetal bovine serum in Corning Costar, 96 well cell culture plates and incubated at 37° C. with 5% CO2 overnight. Cells were acoustically dosed using a […], with compounds serially diluted in 100% DMSO. Cell plates were incubated for a further 4 h after the compounds were added, (for NCI-H838: rhEGF (R&D catalogue number#236-EG) was added to cell plate with final concentration 100 ng/ml rhEGF to stimulate 5 minutes), then following aspiration of medium, 110 μL IP lysis buffer (IP lysis buffer: add 1:100 phosphatase inhibitor cocktail 2&3 (Sigma catalogue number P5726&P0044), 1:100 protease inhibitor cocktail (Sigma catalogue number P8340) to Pierce IP lysis buffer (Thermo catalogue number #87788)) was added to each well. The plates were put at 4° C. with rotation 300 rpm for 0.5-1 hour. […] 100 μl stop solution (Cell Signalling kit catalogue number#7240) was added to the plates and absorbance read at 450 nm within 30 minutes on SpectraMax M5e plate reader. […]

A short description of series [1]: Assay 2: brain blood barrier penetration assay (short oral absorption model plus in vitro blood and brain binding). In kind it is in vivo. The note with it: rat, male Han Wistar rats, oral 2 mg/kg, Kp,uu=AUC (brain)/AUC (blood)×(fu,brain/fu.blood). The method, then:
Assay 2: Brain Blood Barrier Penetration Assay
It is believed that Kp,uu, the relationship between concentrations of unbound drug in brain and in blood, is the key to prediction of CNS action and should be the main parameter measured and optimized for in drug discovery (Di L et al., Journal of Medicinal Chemistry [2013], 56: 2-12).
In vitro blood and brain binding assay was carried out on a HT-Dialysis plate (Gales Ferry, Conn.) with semi-permeable membrane. Diluted blood (1:1 with DPBS pH7.4) and brain homogenate (1:3 with DPBS pH7.4) were spiked with 5 μM test compound (in triplicate) and dialyzed against equal volume of 150 μL 100 mM PBS buffer (pH7.4) at 37° C. for 4 hours in a slowly rotated plate. At the end of incubation, a 50 μL aliquot from the receiver side and a 5 μL from the donor chamber were taken. The 5 μL sample was further diluted with 45 μL of blank blood or brain homogenate. Paired samples were matrix-matched with either buffer or blank blood/brain homogenate and mixed for 2 min, and then precipitated with 150 μL cold acetonitrile with 100 ng/mL tolbutamide as internal standard. After centrifuging at 4000 rpm for 20 min, supernatant was diluted with 0.1% formic acid aqueous solution and analyzed for LC/MS/MS (API 4000, Applied Biosystems, Foster City). […]. D is dilution factor.
A Short oral absorption (SOA) model is an in-vivo screening model to identify brain penetration of a compound. […]
Standards were prepared by spiking blank blood, brain homogenate and artificial CSF covering 0.2 to 500 ng/mL. […] After 2 min vortex and 5 min centrifugation at 14,000 rpm, supernatant was analyzed by LC/MS/MS (API 4000, Applied Biosystems, Foster City). […] For brain and CSF samples, one standard curve was analyzed along with test samples.
Total brain levels, expressed as brain/blood ratio (Kp) were measured by AUCbrain/AUCblood in rodents after oral administration. Free fraction of test compound in biological matrix was determined by in vitro blood and brain binding assay. Kp,uu was calculated by the following equation: Kp,uu=AUC (brain)/AUC (blood)×(fu,brain/fu.blood).

Consider `COc1cc2ncnc(Nc3cccc(Cl)c3F)c2cc1OC(=O)N1CCN(C)C[C@H]1C` [Example 1, 4-[(3-Chloro-2-fluorophenyl)amino]-7-methoxyquinazolin-6-yl (2R)-2,4-dimethylpiperazine-1-carboxylate], for which, in the series on endogenous p-EGFR, the “potency compared with gefitinib and erlotinib” value was “comparable potency to gefitinib and erlotinib”. Besides, the Kp uu in series [1] (in vivo) was determined as 1.3.
Turning to `COc1cc2ncnc(Nc3cccc(Cl)c3F)c2cc1OC(=O)N1CCN(C)C[C@@H]1C` [Example 3, 4-[(3-Chloro-2-fluorophenyl)amino]-7-methoxyquinazolin-6-yl (2S)-2,4-dimethylpiperazine-1-carboxylate], in the series with endogenous p-EGFR, the “potency compared with gefitinib and erlotinib” value is “comparable potency to gefitinib and erlotinib”. Moreover, the Kp uu in series [1] (brain / blood (unbound)) turned out to be 1.6.
For `COc1cc2ncnc(Nc3cccc(Cl)c3F)c2cc1OC(=O)N1CCN(C)C[C@H]1C` [Example 2, 4-[(3-Chloro-2-fluorophenyl)amino]-7-methoxyquinazolin-6-yl (2R)-2,4-dimethylpiperazine-1-carboxylate hydrochloride], the “potency compared with gefitinib and erlotinib” value in the series with endogenous p-EGFR was “comparable potency to gefitinib and erlotinib”.
Turning to `CNC(=O)CN1CCC(Oc2cc3c(Nc4cccc(Cl)c4F)ncnc3cc2OC)CC1` [sapitinib, reference compound], the Kp uu in series [1] (brain / blood (unbound)) worked out at 0.12.
